The values that follow come from paper PMC12177571, “Glycosidase-activated prodrugs of a cytotoxic iron chelator for targeted cancer therapy” (RSC Medicinal Chemistry, 2025).

Data set [1] can be described thus: Stability in PBS without enzyme (HPLC control group). In kind it is physicochemical. Particulars: 100 μM in PBS, no enzyme, 37°C, up to 48 h. The method, then: Additional selectivity control experiments were conducted, in which either no enzyme or an “incorrect” enzyme such as an esterase was used (see Fig. S13–S24 in the ESI ^†).
(§1) The three following enzymes were employed in this study:
(§2) (1) esterase from porcine liver sourced from Sigma Aldrich as dry powder with an activity of 229.4 units/mg protein as indicated by the supplier for the received lot; (2) β-glucosidase from almonds sourced from Sigma Aldrich as dry powder with an activity of 11.7 U/mg as indicated by the supplier for the received lot
(§3) (3) β-galactosidase from e.coli overproducer sourced from Roche as prepared aqueous solution with an activity of 1500 units/mL protein as indicated by the supplier for the […]
(§4) As indicated for each experiment below, the respective enzyme was dissolved in PBS buffer and diluted as appropriate to produce the desired concentration.
25 mM stock solutions in DMSO were prepared for 2a, 2b, 3a, and 3b. From these stock solutions, 4 µL was added to 1 mL of PBS buffer, respectively, in separate glass vials, achieving a final concentration of 100 µM. […]
In the control group, no enzyme was introduced. […] Aliquots were extracted from each vial after 24 and 48 hours, respectively, and analyzed as described below.
The extracted aliquots were analyzed via high-performance liquid chromatography (HPLC) with ultraviolet (UV) detection at a wavelength of 254 nm. […]

The next data set has as its target T1, β-galactosidase (Escherichia coli, UniProt P00722).
T1 construct: purchased Roche; host or cells: E. coli overproducer
Description: AIE fluorescence study of release of 1 with β-galactosidase. It counts as biochemical, e.coli. Particulars: for Relative emission intensity at 480 nm: 20 μM in water; for Fluorescence emission / release of 1 (in words): water, three enzyme units of β-galactosidase, 0 h and 24 h. The method, then:
(§5) The AIE fluorescence properties of 1 were used as a means of supporting the above conclusion. The emission of all glycosylated prodrugs is suppressed. Thus, solutions of each prodrug were prepared in water, and three enzyme units of β-galactosidase or β-glucosidase, as appropriate, were added to the prodrugs. Each mixture was then analysed by fluorescence spectroscopy after 24 h of incubation. […] This finding is consistent with a lack of enzymatic activation.
Fig. 4 Relative emission intensity at 480 nm (*for 3b at 420 nm) of evaluated compounds at 20 μM before and after incubation with 3 U of the appropriate enzyme. TEXT PRINTED IN THE PICTURE: 1: Relative Emission 480 nm: 100% (Before incubation); Relative Emission 480 nm: 100% (After 24 h incubation) | 2a: Relative Emission 480 nm: 0% (Before incubation); Relative Emission 480 nm: 0% (After 24 h incubation) | 2b: Relative Emission 480 nm: 0% (Before incubation); Relative Emission 480 nm: 1% (After 24 h incubation) | 3a: Relative Emission 480 nm: 1% (Before incubation); Relative Emission 480 nm: 33% (After 24 h incubation) | 3b*: Relative Emission 480 nm: 1% (Before incubation); Relative Emission 480 nm: 11% (After 24 h incubation) […]
Figure S25: Fluorescence spectra for excitation (blue) and emission (green) of 1 at a concentration of 20 μM in water.
Figure S26: Fluorescence spectra for excitation (blue) and emission (green) of 2a at a concentration of 20 μM in water before (left) and after (right) incubation with 3 units of b-galactosidase for 24 h. […]
Figure S28: Fluorescence spectra for excitation (blue) and emission (green) of 3a at a concentration of 20 μM in water before (left) and after (right) incubation with 3 units of β-galactosidase for 24 h. […]

Data set [2] deals with β-glucosidase. Put plainly: Enzymatic cleavage study (HPLC) with β-glucosidase. It counts as biochemical, almonds. Particulars: for Release of 1 (HPLC): 100 μM prodrug in PBS, 2 units β-glucosidase, 37°C. The method, then:
To test the desired, selective enzymatic cleavage and further evaluate compound stability, solutions of each prodrug were prepared in phosphate-buffered saline (PBS), and either β-galactosidase or β-glucosidase were added. After incubation times of 24 h and 48 h, samples from each mixture were analyzed by HPLC to gain insight into the relative amounts of both the remaining prodrug and the liberated 1.
Fig. 3 HPLC traces after 48 h of enzyme incubation for the prodrugs of this study as indicated at their respective peaks. The identity of the employed enzyme is indicated on the left of the chromatogram and the identity of each observed compound is shown above the respective peak. Chromatograms are shown with an offset of 2 along the ordinate to facilitate comparison.
as §1, §2, §3, §4
25 mM stock solutions in DMSO were prepared for 2a, 2b, 3a, and 3b. […]
[…] The vials were then assigned to one of three experimental groups: control, negative, and positive.
In the control group, no enzyme was introduced. […]
All vials were incubated in a 37°C water bath for 48 hours. Aliquots were extracted from each vial after 24 and 48 hours, respectively, and analyzed as described below.
The extracted aliquots were analyzed via high-performance liquid chromatography (HPLC) with ultraviolet (UV) detection at a wavelength of 254 nm. Chromatograms were plotted with an offset of 1 along the y-axis to allow clear intercomparison of the data across the […]

Data set [3] concerns β-glucosidase. Description: AIE fluorescence study of release of 1 with β-glucosidase. Particulars: for Relative emission intensity at 480 nm (for 3b at 420 nm): 20 μM in water; for Fluorescence emission / release of 1 (in words): water, three enzyme units of β-glucosidase, 0 h and 24 h. It counts as biochemical, almonds. The method, then: as §5
Fig. 4 Relative emission intensity at 480 nm (*for 3b at 420 nm) of evaluated compounds at 20 μM before and after incubation with 3 U of the appropriate enzyme. TEXT PRINTED IN THE PICTURE: 1: Relative Emission 480 nm: 100% (Before incubation); Relative Emission 480 nm: 100% (After 24 h incubation) | 2a: Relative Emission 480 nm: 0% (Before incubation); Relative Emission 480 nm: 0% (After 24 h incubation) | 2b: Relative Emission 480 nm: 0% (Before incubation); Relative Emission 480 nm: 1% (After 24 h incubation) | 3a: Relative Emission 480 nm: 1% (Before incubation); Relative Emission 480 nm: 33% (After 24 h incubation) | 3b*: Relative Emission 480 nm: 1% (Before incubation); Relative Emission 480 nm: 11% (After 24 h incubation)
Figure S25: Fluorescence spectra for excitation (blue) and emission (green) of 1 at a concentration of 20 μM in water. […]
Figure S27: Fluorescence spectra for excitation (blue) and emission (green) of 2b at a concentration of 20 μM in water
before (left) and after (right) incubation with 3 units of b-glucosidase for 24 h. […]
Figure S29: Fluorescence spectra for excitation (blue) and emission (green) of 3b at a concentration of 20 μM in water
before (left) and after (right) incubation with 3 units of β-glucosidase for 24 h. […]

Setting [4] is: after 24 h incubation with 3 U β-galactosidase.
[5] abbreviates: before incubation with 3 U β-galactosidase.
Where [6] appears, read: after 24 h incubation with 3 U β-glucosidase.
Where [7] appears, read: before incubation with 3 U β-glucosidase.

T1 sequence (P00722 2-1024): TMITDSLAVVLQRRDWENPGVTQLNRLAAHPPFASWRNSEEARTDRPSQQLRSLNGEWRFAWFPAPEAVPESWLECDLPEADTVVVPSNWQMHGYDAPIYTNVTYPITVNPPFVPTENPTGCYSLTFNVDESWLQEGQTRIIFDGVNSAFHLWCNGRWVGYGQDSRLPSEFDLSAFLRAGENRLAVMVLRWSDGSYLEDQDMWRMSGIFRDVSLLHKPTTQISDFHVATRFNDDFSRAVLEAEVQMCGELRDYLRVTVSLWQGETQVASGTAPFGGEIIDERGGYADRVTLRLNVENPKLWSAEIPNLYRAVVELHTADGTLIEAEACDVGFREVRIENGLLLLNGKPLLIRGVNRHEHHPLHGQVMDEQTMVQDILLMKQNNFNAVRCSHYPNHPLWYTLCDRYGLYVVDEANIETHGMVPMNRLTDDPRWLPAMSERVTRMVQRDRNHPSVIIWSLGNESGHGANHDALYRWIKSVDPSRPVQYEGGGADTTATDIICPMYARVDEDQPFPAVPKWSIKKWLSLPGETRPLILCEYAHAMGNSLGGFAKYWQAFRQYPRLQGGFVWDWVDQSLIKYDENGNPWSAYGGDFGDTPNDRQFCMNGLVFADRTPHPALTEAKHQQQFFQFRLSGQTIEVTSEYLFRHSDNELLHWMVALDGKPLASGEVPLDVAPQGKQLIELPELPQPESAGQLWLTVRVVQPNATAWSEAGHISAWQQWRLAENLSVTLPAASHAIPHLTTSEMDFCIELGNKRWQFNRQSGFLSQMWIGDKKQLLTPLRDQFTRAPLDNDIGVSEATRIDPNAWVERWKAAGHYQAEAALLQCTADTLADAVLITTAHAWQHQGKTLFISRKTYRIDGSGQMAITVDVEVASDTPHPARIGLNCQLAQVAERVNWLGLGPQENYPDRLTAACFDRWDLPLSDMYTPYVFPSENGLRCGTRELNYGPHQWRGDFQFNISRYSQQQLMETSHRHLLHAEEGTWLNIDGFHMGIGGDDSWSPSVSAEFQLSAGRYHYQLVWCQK

Regarding `OC[C@H]1OC(Oc2ccccc2-c2nc(-c3ccccc3O)nn2-c2ccccc2)[C@H](O)[C@@H](O)[C@H]1O` (stereo partly shown) [2a], the “Stability in PBS / aqueous media” value in data set [1] was “good stability in aqueous media”. In addition, the “Relative emission intensity at 480 nm” value at β-galactosidase (setting [4]) and on β-galactosidase (setting [5]) was 0% in each case. The “Fluorescence emission / release of 1 (in words)” value (shortened to “Fluorescence emission / release”) at β-galactosidase is “no fluorescence emission was observed”.

For `OC[C@H]1OC(Oc2ccccc2-c2nc(-c3ccccc3O)nn2-c2ccccc2)[C@H](O)[C@@H](O)[C@@H]1O` (stereo partly shown) [2b], the “Release of 1 (HPLC)” value with β-glucosidase [2] (24 h) and in the data set on β-glucosidase [2] (48 h) was “no release of 1 was observed” throughout. In addition, the “Stability in PBS / aqueous media” value in data set [1] is “good stability in aqueous media”. For the same compound, the “Relative emission intensity at 480 nm (for 3b at 420 nm)” value in the data set on β-glucosidase [3] (setting [6]) is listed as 1%; in the data set with β-glucosidase [3] (setting [7]), 0%. Also, in the data set on β-glucosidase [3], the “Fluorescence emission / release” value is on record as “no fluorescence emission was observed”.

Turning to `OC[C@H]1OC(Oc2ccc(COc3ccccc3-c3nc(-c4ccccc4O)nn3-c3ccccc3)cc2)[C@H](O)[C@@H](O)[C@H]1O` (stereo partly shown) [3a], the “Relative emission intensity at 480 nm” value came out at 33% at β-galactosidase (setting [4]) and 1% on β-galactosidase (setting [5]). The “Fluorescence emission / release” value at β-galactosidase is given as “readily discernible release of 1”.

Take `OC[C@H]1OC(Oc2ccc(COc3ccccc3-c3nc(-c4ccccc4O)nn3-c3ccccc3)cc2)[C@H](O)[C@@H](O)[C@@H]1O` (stereo partly shown) [3b]: the “Cleavage of 1 from prodrug (HPLC of the fluorescence sample)” value with β-glucosidase [2] (20 μM in water, 3 enzyme units of β-glucosidase, 24 h) is on record as “successful cleavage”. The “Release of 1 (HPLC)” value with β-glucosidase [2] (24 h) is “significant release of 1”; in the data set on β-glucosidase [2] (48 h) it was “further increased”. Further, the “Relative emission intensity at 480 nm (for 3b at 420 nm)” value with β-glucosidase [3] (setting [6]) turned out to be 11%; in the data set on β-glucosidase [3] (setting [7]), 1%. The “Fluorescence emission / release” value with β-glucosidase [3] is recorded as “less pronounced emission”.
